The results in this text go back to US12624038B2, “Molecules and methods related to treatment of uncontrolled cellular proliferation” (ST. JUDE CHILDREN'S RESEARCH HOSPITAL, priority 2019, dated 2026).

One series deals with T1, GSPT1 (Homo sapiens, UniProt P15170+Q96SW2).
T1 construct: endogenous in cells; host or cells: MHH-CALL-4
As to the kind of experiment: Target degradation (Western Blot) in MHH-CALL-4 cells, GSPT1. In kind it is cell-based. The following applies: for Target Degradation (Western Blot) GSPT1: 100 nM PROTAC at 24 h. A general note: In western blotting, separated proteins are transferred to a membrane and probed.

Another series deals with T2, JAK2 (Homo sapiens, UniProt O60674, I682F).
T2 construct: endogenous in cells; host or cells: MHH-CALL-4
As to the kind of experiment: Target degradation (Western Blot) in MHH-CALL-4 cells, JAK2. The following applies: 100 nM PROTAC at 24 h. In kind it is cell-based.

In a further series the test system is Caco-2 cells. As to the kind of experiment: Caco-2 cell permeability. In kind it is in vitro ADME. The following applies: A to B (Table 4). Here is the method: Compound Caco-2 cell permeability was determined using the Transwell® 0.4 μm polycarbonate membrane 96-well as described before (Uchida, et al. (2009) J Pharmacol Toxicol Methods 59(1): 39-43). Briefly, Caco-2 cells monolayers were incubated over 2 hours at 37° C. Fractions were collected from receivers (basal side, B), and concentrations were assessed by UPLC/MS (Waters; Milford, MA). All compounds were tested in triplicates. The A→B (or B→A) apparent permeability coefficients (Papp) of each compound were calculated using the equation, Papp=dQ/dt×1/AC0, where dQ/dt equals the flux of a drug across the monolayer, A equals the total insert well surface area, and C0 is the initial concentration of substrate in the donor compartment.
(In general: Caco-2 monolayers are a common model of the intestinal barrier.)

Series [1] in a line: In vivo pharmacokinetic (PK) study in NSG mice. On the set-up: species or system mouse. The following applies: for concentration at 24 h: read-out: Clast. Here is the method:
Nontumor bearing female NSG mice (n=6), aged 8-12 weeks were dosed i.p. with single dose of compound 7 at 30 mg/kg and 100 mg/kg, respectively. Compound 7 was suspended in 60% PEG400+10% DMSO+[…] and the dosing volume is 5 ml/kg to get the target dose. For each dose, three mice were injected with a single dose and blood samples were collected at 0.5, 1, 2, 4, 8 and 24 hours by retro-orbital eye bleed technique. Blood samples ([…]) were collected and compound 7 concentration levels determined by LC-MS.

For series [2], the system named is JAK2 and STAT5 phosphorylation. As to the kind of experiment: In vivo pharmacodynamics, phosphoflow of JAK-STAT signaling in engrafted leukemic cells. Also noted: species or system mouse. The following applies: 10, 30 and 100 mg/kg i.p., 2 daily doses. The method, then: For pharmacodynamic studies, after engraftment, mice with >50% hCD45 cells in peripheral blood were dosed with 10, 30 or 100 mg/kg i.p. of compound 7 for 2 daily doses. One hour after the second dose, mice were euthanized, and cells collected from bone marrow and spleen. For phosphoflow cytometry analysis, 0.75×10^6 bone marrow cells in 3 ml of medium were fixed by adding 1 ml of 10% formaldehyde and incubated at room temperature for 10 minutes. The cells then were spun down at 450 g for 5 minutes and resuspended in cold 95% methanol and stored at −20° C. For immunoblotting, splenic leukemia cells were purified by hCD19 MicroBeads (Miltenyi). Cells were pelleted and total protein extracted using RIPA buffer supplemented with Halt™ Protease Inhibitor Cocktail (ThermoFisher).
Cells (7.5×105) were treated with compounds in 3 ml of IMDM containing 1% BSA for one hour followed by treatment with or without 25 ng/mL TSLP (R&D systems) for 30 minutes. Cells were fixed for 10 minutes at room temperature by adding 1 ml of 10% UltraPure Formaldehyde (Polysciences), centrifuged for 5 minutes at 450 g, resuspended in 95% methanol (Electron Microscopy Sciences) and store at −20° C. […] Cells were analyzed on BD Biosciences LSR/Fortessa (BD Biosciences, Franklin Lakes, NJ) with BD FACSDiva 7.0 software followed by FlowJo v10 (Tree Star, Inc., Ashland, OR).

A short description of series [3]: Tolerability (weight, blood counts) of NSG mice in the in vivo efficacy study. The conditions noted are these: 28-day period, 30 mg/kg i.p. daily. Here is the method:
Female NOD.Cg-Prkdcscid Il2rgtm1Wjl/SzJ (NSG) mice aged 8-12 weeks were used for xenotransplantation. All experimental work was carried out according to Office of Laboratory Animal Welfare guidelines and was approved by Institutional Animal Care and Use Committee of St. Jude Children's Research Hospital. Mice aged 8-12 weeks were inoculated by tail vein injection with 1×10^6 leukemic cells transduced with a lentiviral vector containing the firefly luciferase and yellow fluorescent protein genes (CL20SF2-Luc2aYFP) (Sprowl, et al. (2013) Clin Pharmacol Ther. 94(5): 585-592). Leukemia burden was determined by weekly bioluminescence imaging using the Xenogen IVIS-200 system and Living Image software (Caliper Life Sciences). Treatment was commenced when luminescence averaged approximately […] photons/second. Mice were dosed with compound 7 at 30 mg/kg i.p. daily. […]. At the end of the study, cells from spleen, bone marrow and blood were harvested and stained with mouse CD45-APC-Cy7, human CD45-BV405, human CD19-PE antibodies and analyzed by flow cytometry to determine the percentage of human CD45 positive cells. For western blot, spleen leukemia cells were obtained by purification with hCD19 MicroBeads (Miltenyi biotech, Cat #130-050-301) per manufacturer's protocol. Efficacy was determined by linear regression and two-way ANOVA analysis in Prism (GraphPad Software, version 8.4.2).

Series [4] relates to JAK family kinases and GSPT1. As to the kind of experiment: In vivo pharmacodynamics, immunoblotting for Janus kinases and GSPT1 in engrafted leukemic cells. On the set-up: species or system mouse. The conditions noted are these: 10, 30 and 100 mg/kg i.p., 2 daily doses. The method, then: Cells were washed twice with ice-cold PBS and lysed in RIPA lysis buffer (Sigma) freshly supplemented with Halt™ Protease Inhibitor Cocktail (ThermoFisher) for 15 minutes on ice. The cell pellet was removed by centrifugation at 13,000 g at 4° C. for 15 minutes. Protein concentration was measured by BCA assay (Thermo Fisher Scientific). Proteins were denatured in NuPAGE LDS 4× sample buffer supplemented with reducing agents (Invitrogen). Typically, 10-20 μg of total protein was loaded per lane on a 4%-12% NuPAGE Bis-Tris gradient gel (Invitrogen) and analyzed by standard immunoblotting and imaged using Li-COR Odyssey CLx (LI-COR Biotechnology, Lincoln, NE). Primary antibodies used were: JAK1 (Cell Signaling #3332S), JAK2 (#3230S), JAK3 (#8827S), TYK2 (#9312S), GSPT1 (#14980S), CRBN (#71810S), IKZF1 (Santa Cruz Biotechnology, SC-398265) and ACBT (Santa Cruz Biotechnology, SC-47778).
For pharmacodynamic studies, after engraftment, mice with >50% hCD45 cells in peripheral blood were dosed with 10, 30 or 100 mg/kg i.p. of compound 7 for 2 daily doses. One hour after the second dose, mice were euthanized, and cells collected from bone marrow and spleen. For phosphoflow cytometry analysis, 0.75×10^6 bone marrow cells in 3 ml of medium were fixed by adding 1 ml of 10% formaldehyde and incubated at room temperature for 10 minutes. […]

Where [5] appears, read: NSG mice, single dose i.p. 30 mg/kg, per mouse, 30 mg/kg.
[6] abbreviates: NSG mice, single dose i.p. 100 mg/kg, per mouse, 100 mg/kg.
[7] abbreviates: female, NSG, mouse, plasma, ip, 30 mg/kg, NSG mice, single dose i.p. 30 mg/kg, per mouse.

Molecules are shown by their SMILES. Values joined by “and” are separate entries in the source; they are usually repeats but may differ in a detail not shown here. Identical values can stand only once. Like-named read-outs stand apart in the source and are kept apart here.

T1 sequence (P15170 whole entry): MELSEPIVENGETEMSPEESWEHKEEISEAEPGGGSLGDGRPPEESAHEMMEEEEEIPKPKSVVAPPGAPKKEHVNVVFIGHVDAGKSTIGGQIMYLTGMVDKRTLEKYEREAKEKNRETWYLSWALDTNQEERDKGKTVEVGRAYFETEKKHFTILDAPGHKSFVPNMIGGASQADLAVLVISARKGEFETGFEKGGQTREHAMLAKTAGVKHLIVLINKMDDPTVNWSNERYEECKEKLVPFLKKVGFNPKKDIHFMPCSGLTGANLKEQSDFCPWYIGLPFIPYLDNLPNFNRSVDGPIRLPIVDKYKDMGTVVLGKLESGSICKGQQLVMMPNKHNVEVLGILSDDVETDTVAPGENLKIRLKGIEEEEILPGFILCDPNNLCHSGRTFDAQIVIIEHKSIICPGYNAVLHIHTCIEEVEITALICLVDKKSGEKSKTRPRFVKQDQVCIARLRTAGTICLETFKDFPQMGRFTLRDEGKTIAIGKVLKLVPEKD
T1 sequence (Q96SW2 whole entry): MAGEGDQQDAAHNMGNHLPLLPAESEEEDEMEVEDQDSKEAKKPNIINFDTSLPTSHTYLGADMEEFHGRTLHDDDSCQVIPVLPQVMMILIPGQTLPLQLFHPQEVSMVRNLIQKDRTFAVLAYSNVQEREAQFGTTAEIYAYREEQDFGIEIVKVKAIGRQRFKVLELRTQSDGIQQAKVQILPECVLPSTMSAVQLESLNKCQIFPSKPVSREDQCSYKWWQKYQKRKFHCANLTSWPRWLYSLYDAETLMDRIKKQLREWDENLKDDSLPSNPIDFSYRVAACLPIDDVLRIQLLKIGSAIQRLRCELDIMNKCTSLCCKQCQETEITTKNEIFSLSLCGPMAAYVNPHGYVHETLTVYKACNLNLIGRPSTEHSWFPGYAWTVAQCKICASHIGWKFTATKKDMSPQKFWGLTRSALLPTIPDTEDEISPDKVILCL
T1 sequence (Q16531 whole entry partner): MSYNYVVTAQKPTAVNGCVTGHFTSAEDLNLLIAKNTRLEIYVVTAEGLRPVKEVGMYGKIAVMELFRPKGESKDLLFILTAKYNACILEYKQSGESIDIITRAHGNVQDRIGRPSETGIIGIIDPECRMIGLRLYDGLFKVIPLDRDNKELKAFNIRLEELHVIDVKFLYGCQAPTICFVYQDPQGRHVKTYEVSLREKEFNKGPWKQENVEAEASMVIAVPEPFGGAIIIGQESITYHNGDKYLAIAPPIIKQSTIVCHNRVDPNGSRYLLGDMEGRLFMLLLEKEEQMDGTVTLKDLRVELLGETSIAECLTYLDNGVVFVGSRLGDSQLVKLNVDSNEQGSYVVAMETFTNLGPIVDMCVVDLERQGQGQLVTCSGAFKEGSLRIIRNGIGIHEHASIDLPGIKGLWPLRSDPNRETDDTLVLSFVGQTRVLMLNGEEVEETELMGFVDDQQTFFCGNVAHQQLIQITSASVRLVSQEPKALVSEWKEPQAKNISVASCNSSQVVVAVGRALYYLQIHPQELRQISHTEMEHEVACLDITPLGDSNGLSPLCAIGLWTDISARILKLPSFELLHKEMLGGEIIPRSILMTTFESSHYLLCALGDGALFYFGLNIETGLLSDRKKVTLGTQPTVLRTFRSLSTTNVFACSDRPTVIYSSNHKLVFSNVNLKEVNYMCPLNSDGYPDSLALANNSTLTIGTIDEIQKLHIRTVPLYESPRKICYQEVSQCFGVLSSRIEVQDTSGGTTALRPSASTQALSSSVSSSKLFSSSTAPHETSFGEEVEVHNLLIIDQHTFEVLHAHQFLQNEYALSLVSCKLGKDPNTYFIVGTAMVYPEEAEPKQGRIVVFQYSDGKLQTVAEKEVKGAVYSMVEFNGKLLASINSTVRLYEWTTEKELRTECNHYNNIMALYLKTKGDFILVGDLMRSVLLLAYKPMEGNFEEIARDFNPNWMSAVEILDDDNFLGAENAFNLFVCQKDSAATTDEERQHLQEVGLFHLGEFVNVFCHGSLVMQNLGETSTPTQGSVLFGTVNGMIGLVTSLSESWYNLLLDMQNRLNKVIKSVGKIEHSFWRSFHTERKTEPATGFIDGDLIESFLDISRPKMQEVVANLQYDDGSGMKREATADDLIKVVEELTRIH
T2 sequence (O60674 whole entry I682F): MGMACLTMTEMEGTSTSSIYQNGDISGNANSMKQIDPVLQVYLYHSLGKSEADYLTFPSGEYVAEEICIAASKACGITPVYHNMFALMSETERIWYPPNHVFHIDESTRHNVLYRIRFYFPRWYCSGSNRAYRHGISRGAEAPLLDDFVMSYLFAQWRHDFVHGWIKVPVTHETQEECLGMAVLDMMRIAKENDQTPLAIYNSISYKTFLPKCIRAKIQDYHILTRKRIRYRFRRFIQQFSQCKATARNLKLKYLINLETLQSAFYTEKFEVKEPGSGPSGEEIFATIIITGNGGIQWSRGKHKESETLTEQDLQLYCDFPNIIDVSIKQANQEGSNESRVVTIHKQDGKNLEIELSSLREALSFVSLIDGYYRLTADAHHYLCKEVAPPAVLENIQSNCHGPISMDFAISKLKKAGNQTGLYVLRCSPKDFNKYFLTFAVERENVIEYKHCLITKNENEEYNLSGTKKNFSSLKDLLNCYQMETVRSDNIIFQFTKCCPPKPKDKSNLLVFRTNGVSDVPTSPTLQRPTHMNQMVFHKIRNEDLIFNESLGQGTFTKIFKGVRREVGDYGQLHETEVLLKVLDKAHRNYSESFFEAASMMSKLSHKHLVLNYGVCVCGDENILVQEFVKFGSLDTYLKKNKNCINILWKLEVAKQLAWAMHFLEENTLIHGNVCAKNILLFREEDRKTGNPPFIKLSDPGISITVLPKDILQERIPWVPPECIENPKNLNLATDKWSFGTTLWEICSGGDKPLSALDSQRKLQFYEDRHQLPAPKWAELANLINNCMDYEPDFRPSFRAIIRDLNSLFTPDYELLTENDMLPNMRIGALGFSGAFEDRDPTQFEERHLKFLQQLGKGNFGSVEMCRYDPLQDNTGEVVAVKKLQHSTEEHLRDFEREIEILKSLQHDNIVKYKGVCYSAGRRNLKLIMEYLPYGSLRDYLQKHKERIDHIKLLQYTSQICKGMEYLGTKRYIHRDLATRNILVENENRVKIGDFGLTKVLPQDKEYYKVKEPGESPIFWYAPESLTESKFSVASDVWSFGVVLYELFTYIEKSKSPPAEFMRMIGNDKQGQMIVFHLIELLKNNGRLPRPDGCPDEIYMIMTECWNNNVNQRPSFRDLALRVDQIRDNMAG

As to `N#CC[C@H](C1CCCC1)n1cc(-c2nc(Nc3ccc(C(=O)NCCCCNc4cccc5c4C(=O)N(C4CCC(=O)NC4=O)C5=O)cc3)nc3[nH]ccc23)cn1` (some centres unmarked) [Compound 5], at GSPT1, the “degradation of GSPT1 (in words)” value was “degradation of GSPT1 was observed” and the “Target Degradation (Western Blot) GSPT1” value is listed as 3 (3 = Strong (>60% degradation at 24 h)). The “Target Degradation (Western Blot) JAK2” value at JAK2 is 3 (3 = Strong (>60% degradation at 24 h)).
A word on the Cmax: it is the peak of the concentration-time curve. A word on the AUC(0-t): it is the area under the concentration-time curve up to a stated or last time point. Regarding `CCCn1cc(-c2nc(Nc3ccc(C(=O)NCCCCNc4cccc5c4C(=O)N(C4CCC(=O)NC4=O)C5=O)cc3)nc3[nH]ccc23)cn1` (centres unmarked) [Compound 7], the “Cac2 Papp A/B” value with Caco-2 cells turned out to be 19.12 nm/S. The “plasma concentration after 24 hours” value in series [1] (30 and 100 mg/kg, intraperitoneal dosing) is listed as “well above the compounds cellular EC50 value”. The Tlast in series [1] (NSG mice, single dose i.p. 30 mg/kg, per mouse) worked out at 24 h. For the same molecule, in series [1] (setting [5]), the AUClast was 1.7591 µg·h/mL and 2.2482 µg·h/mL; the Clast was 0.053 µg/mL and 0.0743 µg/mL; the Cmax was 0.1258 µg/mL and 0.1553 µg/mL. Further, in series [1] (NSG mice, single dose i.p. 100 mg/kg, per mouse), the Tlast was 24 h. In addition, in series [1] (setting [6]), the AUClast is 1.8847 µg·h/mL and 2.1793 µg·h/mL and 4.459 µg·h/mL; the Clast is 0.0791 µg/mL and 0.152 µg/mL; the Cmax was 0.1813 µg/mL and 0.2332 µg/mL and 0.4105 µg/mL. Further, in series [1] (setting [7]), the AUC(0-t) amounted to 1.35 µg·h/mL and the concentration at 24 h amounted to 0.0455 µg/mL. For the same molecule, the Cmax in series [1] (female, NSG, mouse, plasma, ip, 30 mg/kg, NSG mice, single dose i.p. 30 mg/kg, per mouse, read-out: Cmax) came out at 0.115 µg/mL. Besides, the concentration at 24 h in series [1] (female, NSG, mouse, plasma, ip, 100 mg/kg, NSG mice, single dose i.p. 100 mg/kg, per mouse) was determined as 0.0981 µg/mL. Further, in series [2], the “inhibition of JAK2 and STAT5 phosphorylation in vivo” value is given as “dose dependent inhibition”. On GSPT1, the “degradation of GSPT1 (in words)” value is “degradation of GSPT1 was observed” and the “Target Degradation (Western Blot) GSPT1” value was 3 (3 = Strong (>60% degradation at 24 h)). The “tolerability: weight and blood counts” value in series [3] was “well tolerated with no weight loss or perturbation in blood counts”. Besides, on JAK2, the “Target Degradation (Western Blot) JAK2” value is given as 2 (2 = Medium (20-40% degradation at 24 h)). In addition, in series [4], the “JAK/GSPT1 degradation in vivo” value is reported as “near maximal at the 30 mg/kg dose”.
